Measured values from paper PMC5564715, “Acetyl-CoA carboxylase inhibitors attenuate WNT and Hedgehog signaling and suppress pancreatic tumor growth” (Oncotarget, 2016).

Assays:
[1] = biological target: T1, ACC1 (Homo sapiens, UniProt Q13085); test: ACC1 inhibition IC50 (assay details not given; Supplementary Figure S1A); type: biochemical
T1 construct: gene ACACA

[2] = biological target: T2, ACC2 (Homo sapiens, UniProt O00763); test: ACC2 inhibition IC50 (assay details not given; Supplementary Figure S1A); type: biochemical
T2 construct: gene ACACB
T2 sequence (O00763 whole entry): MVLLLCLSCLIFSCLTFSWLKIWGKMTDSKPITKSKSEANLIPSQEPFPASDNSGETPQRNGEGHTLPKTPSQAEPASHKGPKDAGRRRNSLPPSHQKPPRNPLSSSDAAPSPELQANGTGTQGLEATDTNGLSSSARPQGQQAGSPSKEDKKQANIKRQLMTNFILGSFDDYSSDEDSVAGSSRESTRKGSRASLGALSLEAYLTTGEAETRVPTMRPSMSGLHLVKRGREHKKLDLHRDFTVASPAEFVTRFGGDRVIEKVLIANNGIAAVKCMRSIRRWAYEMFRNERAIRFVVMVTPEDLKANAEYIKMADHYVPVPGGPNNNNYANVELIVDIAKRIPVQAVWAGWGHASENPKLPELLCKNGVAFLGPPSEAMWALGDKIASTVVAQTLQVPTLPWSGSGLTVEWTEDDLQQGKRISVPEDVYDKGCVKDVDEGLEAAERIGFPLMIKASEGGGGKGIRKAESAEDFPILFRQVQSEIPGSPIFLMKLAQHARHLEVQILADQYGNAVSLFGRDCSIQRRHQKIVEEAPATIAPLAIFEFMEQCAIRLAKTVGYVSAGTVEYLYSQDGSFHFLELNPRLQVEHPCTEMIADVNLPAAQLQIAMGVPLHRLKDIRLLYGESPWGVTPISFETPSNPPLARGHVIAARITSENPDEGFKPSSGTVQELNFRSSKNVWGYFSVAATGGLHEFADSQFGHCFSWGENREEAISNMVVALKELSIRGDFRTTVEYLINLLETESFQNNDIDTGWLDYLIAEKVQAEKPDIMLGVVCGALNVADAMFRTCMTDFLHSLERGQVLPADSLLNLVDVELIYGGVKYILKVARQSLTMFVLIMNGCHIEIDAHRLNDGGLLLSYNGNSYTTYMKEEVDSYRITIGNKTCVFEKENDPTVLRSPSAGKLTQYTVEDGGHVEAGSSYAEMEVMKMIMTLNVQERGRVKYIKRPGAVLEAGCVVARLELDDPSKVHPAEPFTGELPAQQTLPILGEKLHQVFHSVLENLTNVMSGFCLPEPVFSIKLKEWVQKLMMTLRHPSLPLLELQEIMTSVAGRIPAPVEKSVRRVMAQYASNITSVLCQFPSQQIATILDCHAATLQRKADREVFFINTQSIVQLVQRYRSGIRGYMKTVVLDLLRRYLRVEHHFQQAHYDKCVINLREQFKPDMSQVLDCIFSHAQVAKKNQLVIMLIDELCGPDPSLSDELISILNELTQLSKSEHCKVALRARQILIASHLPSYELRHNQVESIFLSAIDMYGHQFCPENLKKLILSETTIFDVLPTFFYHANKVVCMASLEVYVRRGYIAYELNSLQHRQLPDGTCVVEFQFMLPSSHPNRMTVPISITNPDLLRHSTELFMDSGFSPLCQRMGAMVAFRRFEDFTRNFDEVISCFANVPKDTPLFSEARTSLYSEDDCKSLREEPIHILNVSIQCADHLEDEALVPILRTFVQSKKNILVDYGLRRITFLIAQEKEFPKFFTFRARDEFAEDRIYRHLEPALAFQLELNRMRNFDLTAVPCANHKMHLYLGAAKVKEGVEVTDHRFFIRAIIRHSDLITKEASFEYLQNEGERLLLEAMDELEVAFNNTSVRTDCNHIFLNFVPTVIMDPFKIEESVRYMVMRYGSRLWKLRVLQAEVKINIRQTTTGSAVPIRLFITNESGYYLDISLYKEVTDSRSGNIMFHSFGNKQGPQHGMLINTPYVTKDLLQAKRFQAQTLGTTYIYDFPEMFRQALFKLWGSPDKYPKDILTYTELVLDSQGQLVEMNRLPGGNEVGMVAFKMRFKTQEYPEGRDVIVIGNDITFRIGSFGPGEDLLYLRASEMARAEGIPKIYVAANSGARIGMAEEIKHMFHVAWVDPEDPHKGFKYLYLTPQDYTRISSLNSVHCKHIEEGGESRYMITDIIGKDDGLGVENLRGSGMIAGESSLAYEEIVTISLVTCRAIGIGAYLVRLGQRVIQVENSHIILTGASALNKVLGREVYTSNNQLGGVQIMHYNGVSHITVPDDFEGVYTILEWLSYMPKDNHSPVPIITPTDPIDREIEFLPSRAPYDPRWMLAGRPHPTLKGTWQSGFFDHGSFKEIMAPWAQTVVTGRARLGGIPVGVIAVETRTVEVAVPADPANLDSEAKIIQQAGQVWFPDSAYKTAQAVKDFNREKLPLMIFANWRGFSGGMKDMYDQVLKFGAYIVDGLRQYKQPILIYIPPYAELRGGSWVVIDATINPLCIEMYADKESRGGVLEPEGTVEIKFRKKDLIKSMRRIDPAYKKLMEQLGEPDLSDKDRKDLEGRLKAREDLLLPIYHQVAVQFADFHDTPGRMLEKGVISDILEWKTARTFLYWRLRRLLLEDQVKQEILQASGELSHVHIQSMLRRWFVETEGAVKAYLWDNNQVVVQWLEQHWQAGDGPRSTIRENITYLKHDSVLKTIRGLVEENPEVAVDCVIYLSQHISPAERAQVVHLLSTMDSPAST

## BAY ACC001
[1]
  IC50: 280 nM
[2]
  IC50: 2600 nM

## BAY ACC002
[1]
  IC50: 100 nM
[2]
  IC50: 1400 nM
